Measurements as given in US9765101B2, “Organo-arsenoxide compounds and use thereof” (NewSouth Innovations Pty Limited, priority 2006, dated 2017).
Several values for one entry are separate records, joined by “and”; a condition that tells them apart may be missing. Equal values may be shown once. Entries after “also recorded” stand apart in the source; their conditions may differ.

Key:
[1] = tested on: organic anion transporting polypeptide (OATP); assay: OATP studies with inhibitor DIDS in BAE cells; format: cell-based, bovine
Method: 750,000 BAE cells were seeded in 6 well plates containing DMEM with 10% fetal calf serum and allowed to adhere overnight. Cells were pretreated or not with 500 μM 4,4′-diisothiocyanostilbene-2,2′-disulfonic acid (DIDS) for 30 min and then incubated with 20 μM (S)-Penicillamine arsenoxide for 2 h at 37° C. and 5% CO2. Cells were then washed twice with ice-cold PBS and lysed with 70% nitric acid. Cellular arsenic levels were determined by ICPMS. 5000 BAE cells were seeded in 96 well plates containing DMEM with 10% fetal calf serum and allowed to adhere overnight. Cells were pretreated or not with 300 μM DIDS for […] and then incubated with 1.5 μM (S)-Penicillamine arsenoxide for 24 h at 37° C. and 5% CO2. Cell viability was determined using MTT.

[2] = tested on: NB4 cells (acute promyelocytic leukaemia); assay: NB4 cell proliferation assay (MTT, 72 h); format: cell-based, human
Method: (§1) BAE cells were from Cell Applications, San Diego, Calif. and BxPC-3, HT1080, LLC, PANC-1, MCF-7, HCT116 and K562 cells were from ATCC, Bethesda, Md. NB4 and MDCK2 cells were from Shane Supple (Kanematsu Laboratories, Royal Prince Alfred Hospital, Sydney, Australia) and P. Borst (The Netherlands Cancer Institute, Amsterdam, The Netherlands). BAE, HT1080, Panc-1, MCF-7, HCT116, MDCK2 and LLC cells were cultured in DMEM. NB4, K562 and BxPC-3 cells were cultured in RPMI medium. The cells were supplemented with 10% foetal calf serum (FBS), 2 mM L-glutamine, and 1 U·mL-1 penicillin/streptomycin. Cell culture plasticware was from Techno Plastic Products (Trasadingen, Switzerland). All other cell culture reagents were from Gibco (Gaithersburg, Md.).
(§2) Adherent cells were allowed to adhere overnight.

[3] = tested on: LLC cells (lung carcinoma); assay: LLC cell proliferation assay (MTT, 72 h); format: cell-based, human; settings: mouse Lewis lung carcinoma, read-out: IC50 for proliferation arrest
Method: as §1, §2

BAE cells = assay: BAE cell proliferation assay (MTT, 72 h); format: cell-based, bovine
Method: as §1, §2

MRP1/2 = assay: Effect of MRP1/2 inhibitors 4H10 and MK-571 on accumulation and anti-proliferative activity in BAE cells
Method: The data points and error bars are the mean±SD of quadruplicate determinations and is representative of two experiments. […] The MRP inhibitors were incubated for 30 min with the cells prior to incubation with (S)-Penicillamine-arsenoxide for 72 h. The data points and error bars are the mean±SD of triplicate determinations. *** is p<0.001, ** is p<0.01
BAE, NB4, K562, MDCK2, HT1080, LLC, HCT116, Panc-1, MCF-7 and BxPC-3 cells were seeded at a density of 1.5×10^3, 3×10^3, 4×10^3, 5×10^2, 2×10^3, 5×10^2, 5×10^2, 6×10^3, 6×10^3 and 1×10^4 cells per well, respectively, into 96-well plates. Adherent cells were allowed to adhere overnight. They were then cultured for 72 h in medium containing 10% fetal calf serum and (S)-Penicillamine-arsenoxide. Viable cells were determined by incubating cells with the tetrazolium salt MTT (Sigma, St. Louis, Mo.), which is metabolized by viable cells to form insoluble purple formazan crystals. DMSO was added to lyse cells, the contents of the wells were homogenized and the absorbance measured at 550 nm. Cell number in the untreated control was normalized as 100%, and viable cell number for all treatments was expressed as percentage of control. The cytotoxic effects of (S)-Penicillamine-arsenoxide were assayed by flow cytometry with propidium iodide. BAE cells were seeded at a density of 5×10^4 cells per well into 12-well plates, allowed to adhere overnight, then treated for 48 h with GSAO. […] The combined cells were pelleted, resuspended in 0.5 mL serum-free medium containing 1 μg·mL^−1 propidium iodide (Molecular Probes, Eugene, Oreg.) and analysed by flow cytometry.
BAE cells were seeded at a density of 1.5×10^6 cells in Petri dishes and allowed to adhere overnight. Cells were incubated with 50 μM (S)-Penicillamine-arsenoxide at discrete times for up to 2 h at 37° C. and then washed three times with ice-cold PBS. The washed cells were lysed in 1 mL of 70% w/w nitric acid. […] Samples were diluted 10-fold and analysed for arsenic atoms using an Elan 6100 Inductively Coupled Plasma Spectrometer (Perkin Elmer Sciex Instruments, Shelton, Conn.).

[4] = tested on: isolated rat liver mitochondria; assay: Mitochondrial swelling assay (mitochondrial permeability transition); format: biochemical; settings: 100 μM
Method: Mitochondria were isolated from the livers of ˜250 g male Wistar rats using differential centrifugation as previously described (Dilda et al., 2005a; Don et al., 2003). The final mitochondrial pellet was resuspended in 3 mM HEPES-KOH, pH 7.0 buffer containing 213 mM mannitol, 71 mM sucrose and 10 mM sodium succinate at a concentration of 30 mg of protein per mL. Mitochondrial permeability transition induction was assessed spectrophotometrically by suspending the liver mitochondria at 0.5 mg of protein per mL at 25° C. in 3 mM HEPES-KOH, pH 7.0 buffer containing 75 mM mannitol, 250 mM sucrose, 10 mM sodium succinate, and 2 μM rotenone. Swelling was measured by monitoring the associated decrease in light scattering at 520 nm using a SpectraMax Plus microplate reader (Molecular Devices, Palo Alto, Calif.).

[5] = tested on: PANC-1 cells (pancreatic carcinoma); assay: PANC-1 cell proliferation assay (MTT, 72 h); format: cell-based; settings: PANC-1, human pancreatic carcinoma; read-out: IC50 for proliferation arrest
Method: as §1, §2

[6] = tested on: human BxPC-3 pancreatic carcinoma tumours; assay: Primary tumor growth assay, BxPC-3 tumours in BalbC nude mice; format: in vivo, mouse; settings: for tumour doubling time: subcutaneous micro-osmotic pump, 28 day
Method: Female 7 to 9 week old Balb C nude mice were used (UNSW Biological Resource Centre). Mice were held in groups of 3 to 5 at a 12 h day and night cycle and were given animal chow and water ad libidum. A suspension of 2×10^6 BxPC-3 cells in 0.2 mL of PBS was injected subcutaneously in the proximal midline. Tumors were allowed to establish and grow to a size of ˜50 mm^3 after which they were randomized into four groups. Tumor volume was calculated using the relationship length×height×width×0.523. Tumor doubling time (TD) was calculated from the tumor growth rate curve during exponential growth using the formula […], where VF is final tumor volume and VI is initial tumor volume (Wolff et al., 2004). Animals were implanted with 28 day alzet model 1004 micro-osmotic pumps (ALZA Corporation, Palo Alto, Calif.) subcutaneously in the flank. The pumps delivery 0.25, 0.5 or 1 mg/kg/day (S)-Penicillamine arsenoxide in 100 mM glycine. Tumor volume and animal weight was measured every 2 or 3 days.
BalbC nude mice bearing subcutaneous human BxPC-3 pancreatic carcinoma tumours in the proximal midline were implanted with 28 day micro-osmotic alzet pumps subcutaneously in the flank. The pumps delivered 0.25, 0.5 or 1 mg per kg per day (S)-Penicillamine arsenoxide. […] The tumour doubling times are 9.2, 8.3, 13.9 and 16.2 days for groups treated with vehicle (100 mM glycine) or 0.25, 0.5 and 1 mg/kg/day (S)-Penicillamine arsenoxide, respectively.

CC(C)(SCC(=O)Nc1ccc([As](O)O)cc1)[C@@H](N)C(=O)O [(S)-Penicillamine-arsenoxide, 4-(N—(S-penicillaminylacetyl)amino)phenylarsinous acid]
effect of DIDS on anti-proliferative activity ([1]; 300 μM DIDS, then 1.5 μM compound 24 h): reduces its anti-proliferative activity | effect of DIDS on uptake ([1]; 500 μM DIDS 30 min, then 20 μM compound 2 h): inhibits (S)-Penicillamine arsenoxide uptake | IC50 ([2]; NB4, human acute promyelocytic leukaemia, read-out: IC50 for proliferation arrest): 0.7 µM | effects on APL cells compared to arsenic trioxide ([2]; NB4 cells, 72 h): equivalent to arsenic trioxide; also recorded: as good an inhibitor of APL cell proliferation as arsenic trioxide | IC50 [3]: 5 µM | times more effective than GSAO at blocking proliferation and reducing the viability of endothelial cells (BAE cells): ~25 times | IC50 (BAE cells; 72 h, read-out: IC50 for proliferation arrest): 0.4 µM and 0.43 µM | substrate status for MRP1/2 (MRP1/2): substrate for MRP1/2 | anti-proliferative effect in presence of MRP1/2 inhibitors (MRP1/2; 0.3 μM compound, 4H10 2 μM or MK-571 15 μM, 72 h): more potent anti-proliferative effect | accumulation in presence of MRP1/2 inhibitors 4H10 and MK-571 (MRP1/2; 50 μM compound, 4H10 5 μM or MK-571 25 μM): More (S)-Penicillamine-arsenoxide accumulated in BAE cells | time for half-maximal swelling of isolated mitochondria, times faster compared to GSAO [4]: approximately 4 times | IC50 [5]: 6.5 µM | tumour doubling time ([6]; 0.25 mg/kg/day): 8.3 days | tumour doubling time ([6]; 0.5 mg/kg/day): 13.9 days | tumour doubling time ([6]; 1 mg/kg/day): 16.2 days | growth of the BxPC-3 tumours ([6]; 0.25, 0.5 or 1 mg per kg per day): significantly inhibited | accumulation of connective tissue, mice affected ([6]; highest dose animals): 1 mouse | skin necrosis at the delivery site, mice affected ([6]; highest dose animals): 3 of the 10 | skin toxicity at pump delivery site ([6]; highest dose animals (1 mg/kg/day)): some skin toxicity at the pump delivery site | findings at delivery site at the lower doses ([6]; lower doses): some evidence of accumulation of connective tissue at the delivery site in the occasional mouse | animal weight versus vehicle ([6]; not shown): no change in the weight
